Patent publication US20130045991A1, “NEUROPROTECTIVE MODULATION OF NMDA RECEPTOR SUBTYPE ACTIVITIES” (THE UNIVERSITY OF BRITISH COLUMBIA, priority 2005, published 2013)

Key:
cortical neurons [1] = test: NMDA-mediated excitotoxicity: neuronal apoptosis in cortical cultures; format: cell-based, rat; details: 50 μM NMDA plus 10 μM glycine 20 min, assayed 20 h after; APV 50 μM, Ro25-6981 0.5 μM, NVP-AAM077 0.4 μM
Method: Mature neurons (11-14 DIV) were used for experiments.
To visualize injured neurons, Hoechst-33342 (10 μg/ml) was added to the culture medium 20 h after treatments and incubated for 45 min at 37 °C. Images were taken with a Leica DMIRE2 fluorescence microscope. Quantitative assessment of neuronal apoptosis was performed 20 h following treatments using a Cell Death Detection […] Kit (Roche Applied Science). Absorbance readings were determined using a spectrophotometric microplate reader. Data analyses were carried out according to the manufacturer's instructions. Data are expressed as the difference in apoptosis relative to control and are expressed as a percentage.

[2] = molecular target: T1, extrasynaptic NMDA receptors (Rattus norvegicus, UniProt Q00960); test: NMDA-induced currents mediated by extrasynaptic NMDA receptors; format: cell-based; details: NMDA 200 μM after MK-801/bicuculline block of synaptic receptors; Ro 25-6981 0.5 μM
T1 construct: both NR2A- and NR2B-containing receptor subtypes are expressed in these neurons; endogenous in cells; host or cells: primary cortical neurons from E18 Sprague-Dawley rat embryos, 11-14 DIV
Method: (§1) In contrast to the predominant expression of NR2A-containing receptors at synapses, NR2B-containing receptors are thought to be the predominant NMDA receptor expressed at extrasynaptic sites in mature neurons (Massy et al., 2004; Tovar et al., 2002). […] The selective blockade of synaptic NMDA receptors was achieved by co-application of bicuculline (50 μM) and MK-801 (10 μM) for 10 min. Bicuculline enhances synaptic release of glutamate and thereby selectively activates synaptic NMDA receptors (Hardingham et al., 2002). MK-801, as an irreversible blocker of open NMDA receptor channels (Tovar et al., 2002; Huettner et al., 1988), can only block the bicuculline-activated synaptic NMDA receptors, and cannot block extrasynaptic channels that are not activated during bicuculline application. […] Little recovery was observed one hour following wash-out of the drugs. The currents gated through extrasynaptic NMDA receptors were then induced by application of NMDA (200 μM) via a fast perfusion system after washing out bicuculline and MK-801. […] On average, about 26.6±2.3% (n=5) of total currents gated by extrasynaptic NMDA receptors were mediated by NR2A-containing receptors (FIG. 4Ad).
(§2) Recording of NMDA-induced currents mediated by extrasynaptic NMDA Receptors: Extrasynaptic NMDA receptors were isolated by a specific blockade of synaptic NMDA receptors with NMDA receptor open channel blocker MK-801 as described above. The coverslip with the treated cortical neurons was transferred to a recording chamber for whole-cell patch-clamp recording. Extrasynaptic NMDA receptors in voltage-clamped cortical neurons were activated by NMDA (200 μM) in Mg2+-free ECS using a fast perfusion system (Warner Instruments).

cortical neurons [3] = test: Staurosporine (STS)-induced neuronal apoptosis; format: cell-based, rat; details: co-application of NVP-AAM077 0.4 μM
Source text: In alternative aspects of the invention, we have achieved specific activation of NR2A-containing receptors using two different strategies. First, we examined the effect of selective activation of extrasynaptic NR2A-containing receptor activation on neuronal appopotosis induced by staurosporine (STS), a potent apoptosis inducer (Budd et al., 2000). […] The NMDA-induced neuronal protection was indeed mediated by NR2A-containing receptors as it was prevented by co-application of NVP-AAM077 (p<0.001 compared with STS alone).
Dissociated cultures of cortical neurons were prepared from 18-day Sprague-Dawley rat embryos as described previously (Mielke et al., 2005). To obtain mixed cortical cultures enriched with neurons, uridine (10 μM) and 5-Fluor-2′-deoxyuridine (10 μM) were added to the culture medium at 3 DIV and maintained for 48 h, to inhibit non-neuronal cell proliferation, before the cultures were shifted back to the normal culture medium. Mature neurons (11-14 DIV) were used for experiments. To induce neuronal apoptosis, cortical cultures were stimulated with NMDA (50 μM) and glycine (10 μM) for 20 min, or STS (100 nM) for 1 h in Mg2+-free extracellular solution (ECS) containing (mM): 25 HEPES acid, 140 NaCl, 33 glucose, 5.4 KCl and 1.3 CaCl2, with pH 7.35 and osmolarity 320-330 mOsm. […]
To visualize injured neurons, Hoechst-33342 (10 μg/ml) was added to the culture medium 20 h after treatments and incubated for 45 min at 37 °C. Images were taken with a Leica DMIRE2 fluorescence microscope. Quantitative assessment of neuronal apoptosis was performed 20 h following treatments using a Cell Death Detection ELISAPLUS Kit (Roche Applied Science). Absorbance readings were determined using a spectrophotometric microplate reader. […] Data are expressed as the difference in apoptosis relative to control and are expressed as a percentage.

Akt (phospho-Ser473) = test: Western blotting of Akt phosphorylation after NMDA treatment; format: cell-based, rat; details: NMDA-treated neurons, western blot
Method: Twelve hours after treatments, proteins were extracted from neurons using a lysis buffer composed of 150 mM NaCl, 50 mM Tris (pH 7.4), 0.1% SDS, 1% NP-40, 0.5% sodium deoxycholate, 1 mM EDTA, 1 mM Na3VO4, 10 μg/ml each of leupeptin and aprotinin, and 1 mM phenylmethylsulfonyl fluoride. To determine the state of Akt phosphorylation, the samples were separated on 10% SDS-PAGE gels, transferred to PVDF membrane and immunoblotted with anti-phosphoSer473-Akt antibody (Cell Signaling). The same membrane was stripped and reprobed with anti-Akt antibody (Cell Signaling). To determine the activity of caspase-3, the samples were separated on 15% SDS-PAGE gels and transferred to PVDF membranes, which were then sequentially probed with antibodies against cleaved caspase-3 (Asp175, Cell Signaling) and β-tubulin (Sigma).

[4] = tested on: extrasynaptic NMDA receptors; test: NMDA-induced currents mediated by extrasynaptic NMDA receptors; format: cell-based, rat; details: NMDA 200 μM; n=5
Method: as §1, §2

[5] = molecular target: T2, extrasynaptic NMDA receptors (Rattus norvegicus, UniProt Q00959); test: as above; format: cell-based; details: in presence of Ro 25-6981; NVP-AAM077 0.4 μM
T2 construct: both NR2A- and NR2B-containing receptor subtypes are expressed in these neurons; endogenous in cells; host or cells: primary cortical neurons from E18 Sprague-Dawley rat embryos, 11-14 DIV
Method: as §1, §2

T1 sequence (Q00960 27-1482, other chains not shown): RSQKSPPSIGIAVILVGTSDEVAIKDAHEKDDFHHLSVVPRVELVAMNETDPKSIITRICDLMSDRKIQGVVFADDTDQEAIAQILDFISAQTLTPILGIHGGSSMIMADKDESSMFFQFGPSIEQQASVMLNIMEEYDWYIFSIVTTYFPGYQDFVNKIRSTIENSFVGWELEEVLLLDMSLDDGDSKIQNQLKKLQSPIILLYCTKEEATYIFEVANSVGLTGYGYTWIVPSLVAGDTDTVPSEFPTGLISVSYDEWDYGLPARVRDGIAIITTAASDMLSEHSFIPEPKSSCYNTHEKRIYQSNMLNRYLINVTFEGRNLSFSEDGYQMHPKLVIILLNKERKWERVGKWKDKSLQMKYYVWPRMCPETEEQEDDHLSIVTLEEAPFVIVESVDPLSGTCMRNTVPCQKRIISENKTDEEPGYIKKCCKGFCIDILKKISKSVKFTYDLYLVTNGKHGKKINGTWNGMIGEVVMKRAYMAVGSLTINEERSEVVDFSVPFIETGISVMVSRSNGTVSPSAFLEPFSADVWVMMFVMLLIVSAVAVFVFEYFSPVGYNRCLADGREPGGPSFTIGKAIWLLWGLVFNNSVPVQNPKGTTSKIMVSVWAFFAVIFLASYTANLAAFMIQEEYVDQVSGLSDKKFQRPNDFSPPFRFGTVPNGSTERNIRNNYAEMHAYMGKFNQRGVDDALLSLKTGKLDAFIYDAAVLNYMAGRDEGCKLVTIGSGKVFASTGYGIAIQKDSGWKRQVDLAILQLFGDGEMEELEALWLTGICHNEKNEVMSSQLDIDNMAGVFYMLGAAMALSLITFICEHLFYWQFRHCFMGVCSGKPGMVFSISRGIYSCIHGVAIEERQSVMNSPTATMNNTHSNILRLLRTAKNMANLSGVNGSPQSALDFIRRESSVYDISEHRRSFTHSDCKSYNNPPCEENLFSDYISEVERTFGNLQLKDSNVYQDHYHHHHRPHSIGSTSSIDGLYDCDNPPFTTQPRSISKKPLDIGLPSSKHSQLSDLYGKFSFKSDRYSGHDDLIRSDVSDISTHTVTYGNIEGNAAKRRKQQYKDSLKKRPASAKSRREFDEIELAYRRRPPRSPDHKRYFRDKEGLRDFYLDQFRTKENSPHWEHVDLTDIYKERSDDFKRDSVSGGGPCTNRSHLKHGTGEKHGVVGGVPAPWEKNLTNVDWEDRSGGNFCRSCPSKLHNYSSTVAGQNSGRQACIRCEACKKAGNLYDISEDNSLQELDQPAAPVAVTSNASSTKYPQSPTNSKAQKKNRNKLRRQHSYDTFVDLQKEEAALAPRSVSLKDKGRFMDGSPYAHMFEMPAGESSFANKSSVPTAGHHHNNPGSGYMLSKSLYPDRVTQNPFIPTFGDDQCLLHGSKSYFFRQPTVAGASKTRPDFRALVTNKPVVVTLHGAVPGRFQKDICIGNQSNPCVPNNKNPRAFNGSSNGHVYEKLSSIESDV
T2 sequence (Q00959 23-1464, other chains not shown): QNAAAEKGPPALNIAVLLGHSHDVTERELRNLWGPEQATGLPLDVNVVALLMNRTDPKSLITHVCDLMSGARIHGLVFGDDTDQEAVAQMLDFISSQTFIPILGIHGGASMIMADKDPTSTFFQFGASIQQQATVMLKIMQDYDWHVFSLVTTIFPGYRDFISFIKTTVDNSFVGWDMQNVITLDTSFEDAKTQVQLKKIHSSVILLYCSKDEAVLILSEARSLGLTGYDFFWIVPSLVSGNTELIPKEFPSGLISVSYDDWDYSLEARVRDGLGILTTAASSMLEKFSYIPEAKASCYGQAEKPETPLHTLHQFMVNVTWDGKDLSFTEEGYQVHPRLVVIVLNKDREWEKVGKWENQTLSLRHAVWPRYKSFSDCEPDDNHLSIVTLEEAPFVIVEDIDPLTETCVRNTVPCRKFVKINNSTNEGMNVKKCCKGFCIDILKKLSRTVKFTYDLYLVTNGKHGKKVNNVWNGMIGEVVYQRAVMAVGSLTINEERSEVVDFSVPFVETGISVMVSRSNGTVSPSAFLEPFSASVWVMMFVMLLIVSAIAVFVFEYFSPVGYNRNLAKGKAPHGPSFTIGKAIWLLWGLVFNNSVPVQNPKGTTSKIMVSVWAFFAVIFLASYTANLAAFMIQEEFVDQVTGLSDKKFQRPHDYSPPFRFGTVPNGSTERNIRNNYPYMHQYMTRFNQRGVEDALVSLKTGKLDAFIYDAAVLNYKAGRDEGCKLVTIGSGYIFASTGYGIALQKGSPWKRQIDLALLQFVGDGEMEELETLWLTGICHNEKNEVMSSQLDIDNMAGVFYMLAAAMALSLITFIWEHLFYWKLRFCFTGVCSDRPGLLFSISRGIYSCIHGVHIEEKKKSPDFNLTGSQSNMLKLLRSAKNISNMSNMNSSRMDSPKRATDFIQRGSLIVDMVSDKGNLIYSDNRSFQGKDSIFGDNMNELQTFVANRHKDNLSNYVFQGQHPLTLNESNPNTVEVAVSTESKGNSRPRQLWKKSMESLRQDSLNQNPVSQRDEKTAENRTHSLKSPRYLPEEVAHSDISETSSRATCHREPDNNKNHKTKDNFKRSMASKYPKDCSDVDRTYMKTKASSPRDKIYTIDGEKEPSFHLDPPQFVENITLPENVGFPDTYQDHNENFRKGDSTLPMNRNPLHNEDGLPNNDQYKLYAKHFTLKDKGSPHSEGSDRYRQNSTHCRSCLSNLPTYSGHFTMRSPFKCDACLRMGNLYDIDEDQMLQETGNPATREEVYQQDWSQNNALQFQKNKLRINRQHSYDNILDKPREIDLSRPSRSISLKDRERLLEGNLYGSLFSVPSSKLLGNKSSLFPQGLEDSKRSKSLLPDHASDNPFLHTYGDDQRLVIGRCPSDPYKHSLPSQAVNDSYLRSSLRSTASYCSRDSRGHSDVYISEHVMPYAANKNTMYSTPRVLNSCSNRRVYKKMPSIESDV

Structure (SMILES)	effect on NMDA-induced neuronal apoptosis/damage (cortical neurons [1])	effect on extrasynaptic NMDA receptor-mediated currents [2]	effect on NMDA-induced protection against STS (cortical neurons [3])	effect on NMDA-induced reduction in Akt kinase activity (S473 dephosphorylation) (Akt (phospho-Ser473))	share of total extrasynaptic NMDA receptor currents mediated by NR2A-containing receptors (Ro 25-6981-resistant, NVP-AAM077-blocked) [4]	effect on residual, NR2B antagonist-resistant extrasynaptic current [5]
C[C@@H](CN1CCC(Cc2ccccc2)CC1)[C@@H](O)c1ccc(O)cc1 (relative stereo) [Ro 25-6981, [R-(R*,S*)]-α-(4-Hydroxyphenyl)-β-methyl-4-(phenylmethyl)-1-piperidinepropanol]	prevented NMDA-induced neuronal apoptosis	largely reduced	–	–	–	–
C[C@H](NC(c1cccc2[nH]c(=O)c(=O)[nH]c12)P(=O)(O)O)c1ccc(Br)cc1 (stereo partly shown) [NVP-AAM077]	significantly enhanced	–	prevented	slightly increased the NMDA-induced reduction in Akt activity	about 26.6±2.3%	virtually completely blocked
